Patent US8586591B2, “Aminopyrazine derivative and medicine” (Nippon Shinyaku Co., Ltd., priority 2009, dated 2013)
Structures can show the parent of a compound that is named as a salt.

Experiments:
JAK3 tyrosine kinase = target: T1, JAK3 tyrosine kinase (Homo sapiens, UniProt P52333); test: Test 1: inhibitory activity to JAK3 tyrosine kinase (ELISA); format: biochemical; conditions: 25 μM ATP in substrate solution, 30° C. for 1 hour, n=2
T1 construct: purchased Carnabioscience Co
T1 sequence (P52333 1-1124): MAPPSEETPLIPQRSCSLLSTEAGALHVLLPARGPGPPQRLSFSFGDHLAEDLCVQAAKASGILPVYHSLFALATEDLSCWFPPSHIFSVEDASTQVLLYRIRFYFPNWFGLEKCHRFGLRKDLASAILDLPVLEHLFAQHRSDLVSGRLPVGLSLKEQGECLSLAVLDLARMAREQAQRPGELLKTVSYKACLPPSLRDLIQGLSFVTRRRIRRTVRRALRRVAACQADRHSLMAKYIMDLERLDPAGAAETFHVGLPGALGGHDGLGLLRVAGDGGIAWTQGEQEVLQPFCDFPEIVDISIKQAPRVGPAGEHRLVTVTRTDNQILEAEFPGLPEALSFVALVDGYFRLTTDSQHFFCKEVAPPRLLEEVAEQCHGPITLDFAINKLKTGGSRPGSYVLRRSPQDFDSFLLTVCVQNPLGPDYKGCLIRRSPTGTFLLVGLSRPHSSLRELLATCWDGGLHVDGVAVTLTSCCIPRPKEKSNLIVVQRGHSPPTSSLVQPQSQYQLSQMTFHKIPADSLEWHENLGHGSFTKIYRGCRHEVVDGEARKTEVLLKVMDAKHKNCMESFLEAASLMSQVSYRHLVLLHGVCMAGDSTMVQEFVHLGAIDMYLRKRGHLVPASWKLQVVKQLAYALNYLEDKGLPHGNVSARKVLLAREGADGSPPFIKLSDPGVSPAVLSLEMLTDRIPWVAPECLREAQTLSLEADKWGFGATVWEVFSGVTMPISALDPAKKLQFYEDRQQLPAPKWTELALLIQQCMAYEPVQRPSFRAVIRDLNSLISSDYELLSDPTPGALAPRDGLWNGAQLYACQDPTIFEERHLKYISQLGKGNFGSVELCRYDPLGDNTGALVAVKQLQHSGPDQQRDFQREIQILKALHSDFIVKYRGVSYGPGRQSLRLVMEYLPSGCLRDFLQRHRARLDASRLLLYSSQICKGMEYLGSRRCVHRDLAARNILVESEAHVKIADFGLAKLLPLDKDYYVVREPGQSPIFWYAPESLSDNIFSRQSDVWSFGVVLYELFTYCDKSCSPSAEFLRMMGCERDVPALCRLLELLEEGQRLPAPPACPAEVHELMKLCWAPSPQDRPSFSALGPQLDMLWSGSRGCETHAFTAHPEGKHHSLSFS
Protocol: Test 1: Test for inhibitory activity to JAK2 and JAK3 tyrosine kinase 1. […] The test material was dissolved in dimethylsulfoxide (DMSO) to be 10 mM, and further diluted with DMSO to be 100-fold concentrations for measurement (1000, 300, 100, 30, 10, 3, 1, 0.3, 0.1, 0.03, 0.01 μM). In addition, solutions diluted with an assay buffer up to 20 times were used as solutions of the test material. As a negative control, a solution of DMSO diluted 20 times with an assay buffer was used. […] 2. Measurement of the Activities of JAK2 and JAK3 Tyrosine Kinases The activity was determined by ELISA. […] The absorbance was measured by means of a micro-plate reader (BIO-RAD; Model 3550) at 450 nm. 3. Analysis of the Results of the Measurement The measured absorbance was subjected to a non-linear regression analysis by means of a SAS system (SAS Institute Inc.), and the concentration (IC50) of the test material which inhibited 50% of the activity of each tyrosine kinase was estimated.

JAK2 tyrosine kinase = target: T2, JAK2 tyrosine kinase (Homo sapiens, UniProt O60674); test: Test 1: inhibitory activity to JAK2 tyrosine kinase (ELISA); format: biochemical; conditions: 25 μM ATP in substrate solution, 30° C. for 1 hour, n=2
T2 construct: purchased Carnabioscience Co
T2 sequence (O60674 whole entry): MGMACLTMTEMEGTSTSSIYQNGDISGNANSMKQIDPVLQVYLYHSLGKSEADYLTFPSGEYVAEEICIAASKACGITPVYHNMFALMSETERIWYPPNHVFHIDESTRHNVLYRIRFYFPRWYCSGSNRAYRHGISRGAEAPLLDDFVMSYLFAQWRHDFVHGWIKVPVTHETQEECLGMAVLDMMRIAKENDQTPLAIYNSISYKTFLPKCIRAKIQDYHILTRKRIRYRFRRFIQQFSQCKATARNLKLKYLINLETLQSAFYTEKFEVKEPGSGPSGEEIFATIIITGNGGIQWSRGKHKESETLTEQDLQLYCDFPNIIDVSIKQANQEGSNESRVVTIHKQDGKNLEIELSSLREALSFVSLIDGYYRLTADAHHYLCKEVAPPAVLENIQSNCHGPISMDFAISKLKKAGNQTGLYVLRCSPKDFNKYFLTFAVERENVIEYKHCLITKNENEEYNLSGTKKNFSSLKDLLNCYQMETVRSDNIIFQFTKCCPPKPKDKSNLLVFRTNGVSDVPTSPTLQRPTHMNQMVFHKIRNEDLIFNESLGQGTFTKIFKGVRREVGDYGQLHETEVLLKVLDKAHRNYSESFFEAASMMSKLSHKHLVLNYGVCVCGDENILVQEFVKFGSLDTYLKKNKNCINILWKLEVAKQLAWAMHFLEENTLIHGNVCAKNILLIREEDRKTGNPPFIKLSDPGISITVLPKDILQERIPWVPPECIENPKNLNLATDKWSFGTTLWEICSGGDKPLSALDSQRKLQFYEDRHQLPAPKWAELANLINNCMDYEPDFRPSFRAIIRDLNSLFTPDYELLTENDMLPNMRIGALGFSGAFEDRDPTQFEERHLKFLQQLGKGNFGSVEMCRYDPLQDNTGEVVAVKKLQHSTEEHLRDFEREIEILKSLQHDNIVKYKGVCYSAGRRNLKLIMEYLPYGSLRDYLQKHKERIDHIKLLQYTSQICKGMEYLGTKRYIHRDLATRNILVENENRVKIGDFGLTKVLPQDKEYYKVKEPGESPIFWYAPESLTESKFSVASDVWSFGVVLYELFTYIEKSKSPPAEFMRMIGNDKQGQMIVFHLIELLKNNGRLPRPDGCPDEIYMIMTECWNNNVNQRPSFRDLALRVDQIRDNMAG
Protocol: Test 1: Test for inhibitory activity to JAK2 and JAK3 tyrosine kinase 1. Preparation of Test Material
The test material was dissolved in dimethylsulfoxide (DMSO) to be 10 mM, and further diluted with DMSO to be 100-fold concentrations for measurement (1000, 300, 100, 30, 10, 3, 1, 0.3, 0.1, 0.03, 0.01 μM). In addition, solutions diluted with an assay buffer up to 20 times were used as solutions of the test material. As a negative control, a solution of DMSO diluted 20 times with an assay buffer was used. As the assay buffer, 15 mM Tris-Cl (pH 7.5), 0.01 v/v % Tween-20, and 1 mM dithiothreitol were used.
2. Measurement of the Activities of JAK2 and JAK3 Tyrosine Kinases
The activity was determined by ELISA. The solution of the test material (10 μl each; n=2) was placed in a streptavidine-coated 96 well plate (DELFIA Strip Plate 8×12 wells; Perkin Elmer), to which 20 μl each of substrate solution (625 nM biotin-labeled peptide substrate, 25 μM ATP, 25 mM MgCl2, 15 mM Tris-Cl (pH 7.5), 0.01 v/v % Tween-20, and 1 mM dithiothreitol), was added and stirred. Finally, 20 μl each of JAK2 tyrosine kinase (Carnabioscience Co.) (diluted to 0.75 nM with assay buffer) or JAK3 tyrosine kinase (Carnabioscience Co.) (diluted to 0.75 nM with assay buffer) was added, stirred and allowed to stand at 30° C. for 1 hour. The plate was washed 4 times with a washing buffer (50 mM Tris-Cl, pH 7.5, 150 mM NaCl, 0.02 v/v % Tween-20), and then a blocking buffer (0.1% Bovine Serum Albumin, 50 mM Tris-Cl, pH 7.5, 150 mM NaCl, 0.02 v/v % Tween-20)(150 μl each) was added for blocking at 30° C. for 30 minutes. Blocking buffer was removed, and there was added 100 μl each of horse radish peroxidase-labeled anti-phosphorylated tyrosin kinase antibody (BD Bioscience Co.) (diluted 10,000 times with blocking buffer). The plate was incubated at 30° C. for 30 minutes and then washed 4 times with a washing buffer, and 100 μl each of 3,3′,5,5′-tetramethylbenzidine (Sigma-Aldrich Co.) was added to develop color for 10 minutes. 0.1 M sulfuric acid (100 μl each) was added to stop the reaction. The absorbance was measured by means of a micro-plate reader (BIO-RAD; Model 3550) at 450 nm.
3. Analysis of the Results of the Measurement
The measured absorbance was subjected to a non-linear regression analysis by means of a SAS system (SAS Institute Inc.), and the concentration (IC50) of the test material which inhibited 50% of the activity of each tyrosine kinase was estimated.

IC50 (JAK3 tyrosine kinase) [nM]	IC50 (JAK2 tyrosine kinase) [nM]	Molecule
24	1.1	4-{2-[(1S)-1-(4-Fluorophenyl)ethylamino]-6-(pyrazin-2-ylamino)pyrimidin-4-yl}-1λ^6,4-thiomorpholin-1,1-dione [Example 226]
130	1.2	C[C@H](Nc1nc(Nc2cnccn2)cc(N2CC(F)(F)C2)n1)c1ccc(F)cc1 [Example 3, (S)-6-(3,3-Difluoroazetidin-1-yl)-N^2-[1-(4-fluorophenyl)ethyl]-N^4-(pyrazin-2-yl)pyrimidine-2,4-diamine hydrochloride]
62	0.62	C[C@H](Nc1cc(-c2cccnc2)cc(Nc2cnccn2)n1)c1ccc(F)cc1 [Example 5, (S)—N^2′-[1-(4-Fluorophenyl)ethyl]-N^6′-(pyrazin-2-yl)-3,4′-bipyridine-2′,6′-diamine hydrochloride]
500	5.7	COc1ccc(-c2cc(Nc3cnccn3)nc(N[C@@H](C)c3ccc(F)cc3)c2)cn1 [Example 6, (S)—N^2′-[1-(4-Fluorophenyl)ethyl]-6-methoxy-N^6′-(pyrazin-2-yl)-3,4′-bipyridine-2′,6′-diamine]
82	1.1	C[C@H](Nc1cc(-c2cnco2)cc(Nc2cnccn2)n1)c1ccc(F)cc1 [Example 8, (S)—N^2-[1-(4-Fluorophenyl)ethyl]-4-(oxazol-5-yl)-N^6-(pyrazin-2-yl)pyridine-2,6-diamine]
360	16	C[C@H](Nc1nc(Cl)cc(Nc2cnccn2)n1)c1ccc(F)cc1 [Example 9, (S)-6-Chloro-N^2-[1-(4-fluorophenyl)ethyl]-N^4-(pyrazin-2-yl)pyrimidine-2,4-diamine]
95	0.89	C[C@H](Nc1nc(Nc2cnccn2)cc(-c2ccc(S(C)(=O)=O)cc2)n1)c1ccc(F)cc1 [Example 10, (S)—N^2-[1-(4-Fluorophenyl)ethyl]-6-[4-(methylsulfonyl)phenyl]-N^4-(pyrazin-2-yl)pyrimidine-2,4-diamine hydrochloride]
36	0.82	C[C@H](Nc1nc(Nc2cnccn2)cc(-c2cn[nH]c2)n1)c1ccc(F)cc1 [Example 11, (S)—N^2-[1-(4-Fluorophenyl)ethyl]-N^4-(pyrazin-2-yl)-6-(1H-pyrazol-4-yl)pyrimidine-2,4-diamine hydrochloride]
79	0.92	C[C@H](Nc1cc(OCCO)cc(Nc2cnccn2)n1)c1ccc(F)cc1 [Example 12, (S)-2-{2-[1-(4-Fluorophenyl)ethylamino]-6-(pyrazin-2-ylamino)pyridin-4-yloxy}ethanol hydrochloride]
71	1.3	C[C@H](Nc1nc(Nc2cnccn2)cc(-c2cccnc2)n1)c1ccc(F)cc1 [Example 13, (S)—N^2-[1-(4-Fluorophenyl)ethyl]-N^4-(pyrazin-2-yl)-6-(pyridin-3-yl)pyrimidine-2,4-diamine]
120	1.9	C[C@H](Nc1nc(Nc2cnccn2)cc(-c2ccccn2)n1)c1ccc(F)cc1 [Example 14, (S)—N^2-[1-(4-Fluorophenyl)ethyl]-N^4-(pyrazin-2-yl)-6-(pyridin-2-yl)pyrimidine-2,4-diamine]
72	1.3	C[C@H](Nc1nc(Nc2cnccn2)cc(-c2ccncc2)n1)c1ccc(F)cc1 [Example 15, (S)—N^2-[1-(4-Fluorophenyl)ethyl]-N^4-(pyrazin-2-yl)-6-(pyridin-4-yl)pyrimidine-2,4-diamine]
630	8	C[C@H](Nc1nc(Nc2cnccn2)cc(N2CCCC2=O)n1)c1ccc(F)cc1 [Example 16, (S)-1-{2-[1-(4-Fluorophenyl)ethylamino]-6-(pyrazin-2-ylamino)pyrimidin-4-yl}pyrrolidin-2-one]
340	4.4	C[C@H](Nc1nc(Nc2cnccn2)cc(N2CC(=O)NC(=O)C2)n1)c1ccc(F)cc1 [Example 17, (S)-4-{2-[1-(4-Fluorophenyl)ethylamino]-6-(pyrazin-2-ylamino)pyrimidin-4-yl}piperazine-2,6-dione]
130	3	C[C@H](Nc1nc(Nc2cnccn2)cc(N2CCCNC2=O)n1)c1ccc(F)cc1 [Example 18, (S)-1-{2-[1-(4-Fluorophenyl)ethylamino]-6-(pyrazin-2-ylamino)pyrimidin-4-yl}tetrahydropyrimidin-2(1H)-one]
59	2.6	C[C@H](Nc1nc(Nc2cnccn2)cc(N2CCCC2)n1)c1ccc(F)cc1 [Example 19, (S)—N^2-[1-(4-Fluorophenyl)ethyl]-N^4-(pyrazin-2-yl)-6-(pyrrolidin-1-yl)pyrimidine-2,4-diamine]
950	8.7	C[C@H](Nc1nc(Nc2cnccn2)cc(N2CCNC2=O)n1)c1ccc(F)cc1 [Example 21, (S)-1-{2-[1-(4-Fluorophenyl)ethylamino]-6-(pyrazin-2-ylamino)pyrimidin-4-yl}imidazolidin-2-one hydrochloride]
–	0.96	C[C@H](Nc1nc(Nc2cnccn2)cc(N2CC(C(=O)N(C)C)C2)n1)c1ccc(F)cc1 [Example 176, (S)-1-{2-[1-(4-Fluorophenyl)ethylamino]-6-(pyrazin-2-ylamino)pyrimidin-4-yl}-N,N-dimethylazetidin-3-carboxamide]
–	0.41	CC(C)C1(O)CN(c2cc(Nc3cnccn3)nc(N[C@@H](C)c3ccc(F)cc3)n2)C1 [Example 201, (S)-1-{2-[1-(4-Fluorophenyl)ethylamino]-6-(pyrazin-2-ylamino)pyrimidin-4-yl}-3-isopropylazetidin-3-ol hydrochloride]
